In patent publication US6646006B2, “Enhancement of vascular function by modulation of endogenous nitric oxide production or activity” (The Board of Trustees of the Leland Stanford Junior …, priority 1993, dated 2003):

Columns and labels:
[1] = design: species or system human; conditions: in vivo, po
Protocol: (§1) The control subject population in this study included 12 normal volunteers, (10 males and 2 females), with an average age of 37±2 yrs. Normalcy was determined by a careful history, physical examination, and laboratory analysis to exclude individuals with hematologic, renal, or hepatic dysfunction or clinically evident atherosclerosis. There were 20 patients (10 males and 10 females) with hypercholesterolemia as defined by a total plasma cholesterol greater than 240 mg/dl and a LDL cholesterol level greater than 160 mg/dl. […] None of the subjects were taking diuretics, vasoactive medications, antiplatelet or hypolipidemic medications. This study was approved by the Stanford University Administrative Panel on Human Subjects in Medical Research and each subject gave written informed consent before entry into the study. Blood was drawn from each subject in the postabsorptive state.
Results. Oral administration of L-arginine ([…] for 2 weeks) to hypercholesterolemic humans increased plasma arginine values by 60% (from […]; n=7), whereas L-arginine values in the placebo-treated (n=3) and normocholesterolemic (n=6) groups remained unchanged.

[2] = system: platelets; assay: Platelet aggregometry in hypercholesterolemic humans after oral L-arginine; type: in vivo, human
Description: FIG. 13 is a set of histograms showing aggregation of platelets obtained in hypercholesterolemic humans (hc), and individuals with normal cholesterol levels (nc). Platelet aggregation ex vivo in response to adenosine diphosphate (ADP) is increased in hc individuals in comparison to normal individuals. […] (See Ex. 16)
In this study we tested the hypothesis that chronic L-arginine supplementation would inhibit platelet reactivity in hypercholesterolemic humans. Venous blood was collected from normal (NC; n=11) and hypercholesterolemic (HC; n=22) volunteers for isolation of platelet-rich plasma and aggregometry. […]

[3] = system: MCP-1; assay: Northern analysis of MCP-1 expression in thoracic aortae; type: in vivo, rabbit; conditions: two weeks; L-NA on normal chow, Arg on high cholesterol diet
Description: To investigate the role of endogenous NO in the regulation of MCP-1 in vivo, NZW rabbits were fed normal chow, normal chow plus nitro-L-arginine (L-NA) (to inhibit vascular NO synthesis), high cholesterol diet (Chol), or high cholesterol diet supplemented with L-arginine (Arg) (to enhance NO synthesis). After two weeks, thoracic aortae were harvested and total RNA was isolated. […] These studies indicate that the anti-atherogenic effect of NO may be mediated in part by its inhibition of MCP-1 expression. NO inhibits the generation of superoxide anion by the vascular cells and thereby turns off an oxidant-responsive transcriptional pathway (i.e. NFκB-mediated transcription) activating MCP-1 expression.

[4] = system: platelets; assay: ADP-initiated platelet aggregation (nephelometry), platelets from treated rabbits; type: in vivo, rabbit
Protocol: The effect of L-arginine supplementation on platelet reactivity in rabbits that had normal chow (Control; n=6), a 1% cholesterol diet (Chol; n=5), or a 1% cholesterol diet supplemented with oral arginine (Arg; n=6), as detailed above, was examined. Arterial blood obtained after central ear artery cannulation was anticoagulated with 13 mM sodium citrate. Platelet-rich suspension was prepared by washing platelets in calcium-free Krebs-Henseleit solution and resuspending them in Tyrode's solution with albumin. Aggregation was initiated by addition of adenosine diphosphate and monitored by standard nephelometric techniques. In platelets derived from Chol animals, aggregation was not different in rate or maximum extent in comparison to platelets from Control animals (A, in FIG. 2). By contrast, aggregation of platelets from Arg animals was reduced by 50% (B, in FIG. 2).
Therefore, the anti-platelet effect of chronic oral arginine administration can be credited to an increased synthesis of endogenous NO. Furthermore, NO synthesis may be induced in both the platelets and the endothelium.

[5] = system: hypercholesterolemic rabbits; assay: Organ chamber studies of isolated vessels from cholesterol-fed rabbits; type: in vivo, rabbit
Description: Study design: (See, Cooke et al., 1992, supra) Male New Zealand white rabbits (n=49) were assigned to one of three treatment groups: 10 were fed with normal rabbit chow for ten weeks (Control); 19 received chow enriched with 1% cholesterol (Chol); and 20 received a 1% cholesterol diet supplemented with 2.25% L-arginine hydrochloride in the drinking water (Arg.). […] Subsequently the animals were sacrificed and the left main coronary artery and the thoracic aorta were harvested for studies of vascular reactivity and histomorphometry. In some animals, blood was collected for studies of platelet and monocyte reactivity.
By contrast, NO-dependent relaxations were attenuated in vessels harvested from hypercholesterolemic animals with a reduction in the maximal response to acetylcholine. In comparison, vessels harvested from hypercholesterolemic animals receiving L-arginine supplementation had improved NO-dependent relaxation to acetylcholine. In a separate study, the effect of chronic arginine supplementation to improve NO-dependent relaxation was confirmed in the hypercholesterolemic rabbit abdominal aorta.

[6] = system: human monocytes; assay: Ex vivo binding of human monocytes to bEnd3 endothelial cells after oral L-arginine; type: in vivo
Protocol: as §1
We isolated human monocytes from citrated venous blood. The blood was centrifuged and the buffy coat removed and resuspended with HBSS. The suspension was then carefully layered onto a cushion of 1.068-d Histopaque, and centrifuged. After centrifugation, the monocytes were aspirated.
We used the transformed endothelial cell (EC) line, bEnd3 to examine monocyte-endothelial binding ex vivo. The bEnd3 cells express endothelial adhesion molecules and bind monocytes in a cytokine-inducible fashion with kinetics similar to those observed with human umbilical vein endothelium. Monocytes were added to the wells containing the endothelial monolayers to reach a final cell number of 3×10^6/ml. In some studies, monocytes were exposed in vitro for 30 minutes to sodium nitroprusside (an NO donor) prior to the binding assay.
The six-well plates were transferred to a rocking platform and rocked for 30 minutes at room temperature. After 30 minutes, the cell suspension was aspirated from each well and wells were then rinsed with binding buffer to remove nonadherent monocytes. Videomicroscopic counting of adherent cells was performed using a computer aided image analysis system.
To confirm this effect of L-arginine treatment and to control for any experimental bias, a double-blinded, placebo-controlled, randomized study was performed. Ten hypercholesterolemic subjects were randomized (1:2) to placebo or L-arginine treatment; 6 normocholesterolemic individuals were studied in parallel to control for variation over time in the binding assay. At baseline, the adhesion of monocytes from both hypercholesterolemic groups was increased in comparison to the normocholesterolemic individuals (p<0.001). After 2 weeks of L-arginine administration, there was an absolute reduction of 53% in monocyte binding (n=7, p<0.005, baseline vs 2 weeks) (FIG. 11). By contrast, there was no significant change in the adhesiveness of monocytes isolated from hypercholesterolemic individuals treated with placebo.

[7] = two weeks after discontinuation of L-arginine

SMILES: N=C(N)NCCC[C@H](N)C(=O)O [L-arginine]
- increase of plasma arginine values ([1]; human, 2 weeks): 60%
- plasma arginine value after treatment ([1]; human, 2 weeks): 128 ± 12 mM
- effect on biochemical or hematologic parameters [1]: no effect
- tolerability [1]: well tolerated
- platelet aggregation in response to ADP ([2]; 2 weeks of oral L-arginine): attenuated
- aggregability of HC platelets ([2]; two weeks, collagen 5 mg/ml): reduced
- expression of MCP-1 in aortae [3]: decreased
- cGMP content in aggregated platelets ([4]; arginine-treated animals): two-fold greater
- reduction of platelet aggregation ([4]; platelets from Arg animals, adenosine diphosphate): 50%
- NO-independent responses: maximal response or sensitivity to norepinephrine or nitroglycerin ([5]; differences between treatment groups): no differences
- NO-dependent relaxation to acetylcholine ([5]; vs hypercholesterolemic animals without supplement): improved
- adhesiveness of monocytes compared with normal subjects ([6]; after 2 weeks of arginine treatment): no different from those of the normal subjects
- absolute reduction in monocyte binding ([6]; double-blinded placebo-controlled, baseline vs 2 weeks, n=7): 53%
- decrease in monocyte adhesiveness ([6]; open-label, 3 individuals, 2 weeks): 38%
- increase in binding vs that after 2 weeks of L-arginine therapy [6, 7]: 30±9%
- increase in bound cells/hpf vs normocholesterolemic individuals [6, 7]: 34±9%
